Results from publication PMC10199020 (Nature Communications, 2023).
Bridge positions count the residues as written; N and C are the ends. Square brackets hold non-standard residues; d marks the D form. Peptide text beside a SMILES is read from it. * marks the point of attachment. 5TAMRA = CN(C)c1ccc2c(c1)Oc1cc(N(C)C)ccc1C21OC(=O)c2cc(C(=O)*)ccc21; 2Nal = N[C@@H](Cc1ccc2ccccc2c1)C(=O)O; Pen = CC(C)(S)[C@H](N)C(=O)O; Aib = CC(C)(N)C(=O)O

Legend:
NL-IL23R = target: T1, NL-IL23R (Homo sapiens, UniProt Q5VWK5); test: P630-TMR NanoBRET binding assay, NL-IL23R alone; details: for BRET ratio, Specific (Mean) / BRET ratio, Non-specific (Mean): Fig. 2c; for BRET ratio, Non-specific (Mean): with 10 μM P630; for BRET ratio with non-specific binding subtracted (Mean): Figure 2 sheet Panel f; for BRET ratio with non-specific binding subtracted (Mean) / % maximum BRET ratio / % of P630-TMR specific Bmax (Mean): NL-IL23R; for % maximum BRET ratio / % of P630-TMR specific Bmax (Mean): Figure 2 sheet Panel g, Fig. 3d
T1 construct: expressed in transfected cells; host or cells: HEK293T, transient transfection
T1 sequence (Q5VWK5 24-629): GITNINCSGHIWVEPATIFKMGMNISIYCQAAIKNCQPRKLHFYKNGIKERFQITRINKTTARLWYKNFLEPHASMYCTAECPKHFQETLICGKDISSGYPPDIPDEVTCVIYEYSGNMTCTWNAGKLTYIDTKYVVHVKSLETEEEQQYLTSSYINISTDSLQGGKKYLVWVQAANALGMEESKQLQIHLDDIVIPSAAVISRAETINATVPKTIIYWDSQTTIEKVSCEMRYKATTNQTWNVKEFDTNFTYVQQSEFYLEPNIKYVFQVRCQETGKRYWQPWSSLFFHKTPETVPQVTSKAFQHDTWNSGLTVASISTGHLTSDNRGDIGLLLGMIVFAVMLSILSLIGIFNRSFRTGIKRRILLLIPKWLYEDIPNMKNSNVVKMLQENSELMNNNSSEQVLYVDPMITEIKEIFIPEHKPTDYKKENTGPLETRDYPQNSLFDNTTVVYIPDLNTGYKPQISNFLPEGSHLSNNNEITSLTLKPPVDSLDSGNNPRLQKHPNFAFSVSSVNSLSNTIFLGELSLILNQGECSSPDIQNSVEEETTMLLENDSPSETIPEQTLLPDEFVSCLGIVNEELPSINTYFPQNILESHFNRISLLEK
Source text: A standard curve was used to predict the expression level of NanoLuc labelled receptor in each experiment (Supplementary Fig. 1).
Fig. 2 Creation and characterisation of a fluorescent cyclic peptide probe for IL23R. […] Data are normally mean ± SEM from five independent experiments. Details on absolute number of data points included for each concentration are provided in the associated Source Data file. In each individual saturation experiment triplicate determinations were normally made for total binding and duplicate measurements were made for non-specific binding.
(§1) Media was removed from white 96-well microplates containing transfected cells and replaced with fluoroprobe in the presence or absence of antagonist in 50 μL Hanks Balanced Salt Solution (HBSS) with 1 mg/mL BSA (Merck). After a 1-hour incubation at 37 °C without CO2, 5 μL of HBSS containing 77 μM furimizine was added to each well (final concentration 7 μM), the plate incubated for 5-minutes and the BRET signal measured using a PheraStar FS plate reader (BMG Labtech; data acquisition software version 5.41; MARS analysis software version 3.32) with a 450 ± 30 nm and >550 nm long pass filters.
Ligand binding data were fitted with the equation:2 BRETratio=Bmax[A]/([A]+KD)+(BA+C). Where ‘Bmax’ is the maximum specific binding BRET signal, ‘[A]’ is fluorescent probe concentration, ‘B’ is the non-specific binding component’s slope and ‘C’ is the Y intercept.
Specific binding data was generated by subtracting the BRET values gained in the presence of an excess of unlabelled probe from the BRET ratios gained in the absence of unlabelled probe. Specific binding data were fit using the equation:3 Y=Bmax[B]/(B+KD) where ‘Bmax’ is the maximum specific binding signal of the curve and ‘[B]’ is the concentration of fluorescent probe.

C115Y mutated IL23R = target: T2, C115Y mutated IL23R (Homo sapiens, UniProt P42701+Q5VWK5, C115Y); test: P630-TMR NanoBRET binding assay, C115Y mutant; details: for Mean NanoBRET binding signal (Figure 7 panel b): NL-IL23R (C115Y) + IL12Rβ1
T2 construct: expressed in transfected cells; host or cells: HEK293T, transient transfection
T2 sequence (Q5VWK5 24-629 C115Y, other chains not shown): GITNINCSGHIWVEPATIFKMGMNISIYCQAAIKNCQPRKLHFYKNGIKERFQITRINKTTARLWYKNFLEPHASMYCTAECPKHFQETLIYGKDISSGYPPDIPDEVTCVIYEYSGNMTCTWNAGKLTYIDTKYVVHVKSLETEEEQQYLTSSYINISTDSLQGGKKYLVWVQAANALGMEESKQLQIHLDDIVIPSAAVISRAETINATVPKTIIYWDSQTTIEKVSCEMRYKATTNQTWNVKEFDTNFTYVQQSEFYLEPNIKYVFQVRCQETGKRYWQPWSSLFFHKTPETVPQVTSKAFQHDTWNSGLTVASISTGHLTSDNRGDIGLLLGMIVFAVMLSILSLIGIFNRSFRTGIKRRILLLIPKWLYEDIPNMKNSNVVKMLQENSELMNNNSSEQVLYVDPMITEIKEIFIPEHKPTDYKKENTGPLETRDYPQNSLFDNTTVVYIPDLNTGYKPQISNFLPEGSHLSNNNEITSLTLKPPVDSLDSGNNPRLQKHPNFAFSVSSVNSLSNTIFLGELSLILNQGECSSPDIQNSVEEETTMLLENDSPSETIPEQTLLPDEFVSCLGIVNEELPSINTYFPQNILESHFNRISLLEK
Method: Data are mean ± SEM from five (C115Y) or four (wildtype) independent experiments conducted in duplicate or triplicate. Details on absolute number of data points included for each concentration are provided in the associated Source Data file.
as §1, with “filters. P630-TMR binding assays were normalised to a final DMSO concentration of 0.1%.” for “filters.”

[1] = NL-IL23R alone, P630-TMR 0.457247 nM
[2] = NL-IL23R alone, P630-TMR 1.37174 nM
[3] = NL-IL23R alone, P630-TMR 4.11523 nM
[4] = NL-IL23R alone, P630-TMR 12.3457 nM
[5] = NL-IL23R alone, P630-TMR 37.037 nM
[6] = NL-IL23R alone, P630-TMR 111.111 nM
[7] = NL-IL23R alone, P630-TMR 1000 nM
[8] = NL-IL23R alone, P630-TMR 3000 nM

## COc1ccc(C[C@H](NC(=O)[C@H]2NC(=O)[C@H](CCC(N)=O)NC(=O)[C@H](Cc3c[nH]c4ccccc34)NC(=O)[C@H]([C@@H](C)O)NC(=O)[C@H](CC(N)=O)NC(=O)[C@@H](NC(C)=O)C(C)(C)SSC2(C)C)C(=O)N[C@@H](Cc2ccc3ccccc3c2)C(=O)NC(C)(C)C(=O)N[C@@H](CCC(=O)O)C(=O)N[C@@H](CC(N)=O)C(=O)N[C@@H](CC(N)=O)C(=O)N[C@@H](CCCCNC(=O)c2ccc3c(c2)C(=O)OC32c3ccc(N(C)C)cc3Oc3cc(N(C)C)ccc32)C(N)=O)cc1 [P630-TMR] (Ac-[Pen]NTWQ[Pen]Y(Me)[2Nal][Aib]ENNK(5TAMRA)-NH2; disulfide 1-6)
NL-IL23R; [1]
  BRET ratio, Specific (Mean): 0.2582
  BRET ratio, Non-specific (Mean): 0.2458
NL-IL23R; [2]
  BRET ratio, Specific (Mean): 0.3055
  BRET ratio, Non-specific (Mean): 0.2417
NL-IL23R; [3]
  BRET ratio, Specific (Mean): 0.425
  BRET ratio, Non-specific (Mean): 0.2509
NL-IL23R; [4]
  BRET ratio, Specific (Mean): 0.7682
  BRET ratio, Non-specific (Mean): 0.245
NL-IL23R; [5]
  BRET ratio, Specific (Mean): 1.473
  BRET ratio, Non-specific (Mean): 0.2505
NL-IL23R; [6]
  BRET ratio, Specific (Mean): 2.644
  BRET ratio, Non-specific (Mean): 0.2646
NL-IL23R; [7]
  BRET ratio, Specific (Mean): 4.095
  BRET ratio, Non-specific (Mean): 0.4272
NL-IL23R; [8]
  BRET ratio, Specific (Mean): 5.137
  BRET ratio, Non-specific (Mean): 0.8664
NL-IL23R; NL-IL23R alone, P630-TMR […]
  BRET ratio, Non-specific (Mean): 0.2988
NL-IL23R; P630-TMR 0.457247 nM
  BRET ratio with non-specific binding subtracted (Mean): 0.01938
  % maximum BRET ratio / % of P630-TMR specific Bmax (Mean): 0.5534%
NL-IL23R; P630-TMR 1.37174 nM
  BRET ratio with non-specific binding subtracted (Mean): 0.8164
  % maximum BRET ratio / % of P630-TMR specific Bmax (Mean): 1.759%
NL-IL23R; P630-TMR 4.11523 nM
  BRET ratio with non-specific binding subtracted (Mean): 2.963
  % maximum BRET ratio / % of P630-TMR specific Bmax (Mean): 4.853%
NL-IL23R; P630-TMR 12.3457 nM
  BRET ratio with non-specific binding subtracted (Mean): 2.778
  % maximum BRET ratio / % of P630-TMR specific Bmax (Mean): 14.5245%
NL-IL23R; P630-TMR 37.037 nM
  BRET ratio with non-specific binding subtracted (Mean): 2.936
  % maximum BRET ratio / % of P630-TMR specific Bmax (Mean): 33.5672%
NL-IL23R; P630-TMR 111.111 nM
  BRET ratio with non-specific binding subtracted (Mean): 9.572
  % maximum BRET ratio / % of P630-TMR specific Bmax (Mean): 64.3078%
NL-IL23R; P630-TMR 1000 nM
  BRET ratio with non-specific binding subtracted (Mean): 15.1461
  % maximum BRET ratio / % of P630-TMR specific Bmax (Mean): 100.336%
NL-IL23R; P630-TMR 3000 nM
  BRET ratio with non-specific binding subtracted (Mean): 19.8619
  % maximum BRET ratio / % of P630-TMR specific Bmax (Mean): 99.0015%
NL-IL23R; NL-IL23R alone, mean ± SEM
  Kd: 101 ± 4 nM
NL-IL23R; NL-IL23R in isolation
  Bmax, fold higher than NL-IL23R with IL12Rβ1: 4.04 fold
C115Y mutated IL23R
  Binding to C115Y mutant receptor: blocked specific binding
C115Y mutated IL23R; [P630-TMR] 0.8 nM
  Mean NanoBRET binding signal (Figure 7 panel b): -0.003437
C115Y mutated IL23R; [P630-TMR] 4 nM
  Mean NanoBRET binding signal (Figure 7 panel b): -0.009288
C115Y mutated IL23R; [P630-TMR] 20 nM
  Mean NanoBRET binding signal (Figure 7 panel b): -0.006407
C115Y mutated IL23R; [P630-TMR] 100 nM
  Mean NanoBRET binding signal (Figure 7 panel b): -0.004647
C115Y mutated IL23R; [P630-TMR] 500 nM
  Mean NanoBRET binding signal (Figure 7 panel b): -0.001312
C115Y mutated IL23R; [P630-TMR] 2000 nM
  Mean NanoBRET binding signal (Figure 7 panel b): 0.003535
